pKd: −log10 of the molar value.
Molecular target: catalytic subunit of the cAMP-dependent protein kinase A (PKA-C) (Mus musculus, UniProt P05132)
Assay: isothermal titration calorimetry
Type: binding

pKd: ~3.60
SMILES: Nc1ncnc2c1ncn2[C@@H]1O[C@H](COP(=O)(O)O)[C@@H](O)[C@H]1O [AMP]
